Tested on: HaCaT cells
Assay: Concentrations of inflammatory mediators produced by HaCaT cells stimulated with TNFα and IFNγ in presence/absence of JAK inhibitors (ProCarta)
Assay type: cell-based, human
Experimental: After 48 hours, cell culture media was removed from 24 well plates and replaced with 250 uL of media containing serial diluted drug, then incubated for 15 minutes at 37° C./5% CO2. […] The final concentration of Recombinant Human Interferon gamma and Recombinant Human Tumor Necrosis Factor alpha was 25 ng/mL of each cytokine. Cytokine stimulation added to wells containing drug brought the final concentrations for each drug treatment to 25 nM, 50 nM, 100 nM, and 200 nM. Treated plates were mixed by gentle agitation for 30 seconds then incubated for 24 hours at 37° C./5% CO2. At the end of the 24 hour incubation media was immediately removed from each plate.
Media was incubated with antibody conjugated beads designed to bind to the epitopes of specific target proteins and identify the bound protein through the bead's distinctive spectral pattern. Biotinylated detection antibodies, designed to bind to different epitopes of the same target proteins, and Streptavidin-PE are added to assay plates to quantify the amount of the target proteins. Assay plates were read on the Luminex 200 and data were expressed as Net Median Fluorescence Intensity. […] The concentration of each protein was extrapolated from the antigen standard curve and concentrations were expressed as pg/mL (Table 15).

[1] = TNFα 25 ng/mL + IFNγ 25 ng/mL, drug 25 nM
[2] = TNFα 25 ng/mL + IFNγ 25 ng/mL, drug 50 nM
[3] = TNFα 25 ng/mL + IFNγ 25 ng/mL, drug 100 nM
[4] = TNFα 25 ng/mL + IFNγ 25 ng/mL, drug 200 nM

For `Cc1n[nH]c(C)c1-c1cnn(C2(CC#N)CN(c3cc(F)c(C(=O)N[C@@H](C)C(F)(F)F)cc3F)C2)c1` [Cpc C], the BDNF concentration [1] was 4.01 ± 0.19 pg/mL, the EGF concentration [1] was 1.54 ± 0.13 pg/mL and the Eotaxin concentration [1] was 10.08 ± 0.15 pg/mL. The FGF-2 concentration [1] was 21.41 ± 1.39 pg/mL, the GM-CSF concentration [1] was 130 ± 3.15 pg/mL and the GRO alpha concentration [1] was 548.93 ± 27.91 pg/mL. It also gave an HGF concentration [1] of 13.66 ± 0.51 pg/mL, an IFN alpha concentration [1] of 0.25 ± 0.01 pg/mL and a bNGF concentration [1] of 7.86 ± 0.56 pg/mL. It also gave a BDNF concentration [2] of 4 ± 0.23 pg/mL, an EGF concentration [2] of 1.14 ± 0.17 pg/mL and an Eotaxin concentration [2] of 9.84 ± 0.25 pg/mL. The FGF-2 concentration [2] was 20.77 ± 1.37 pg/mL, the GM-CSF concentration [2] was 126.18 ± 3.4 pg/mL and the GRO alpha concentration [2] was 544.74 ± 37.71 pg/mL. The HGF concentration [2] was 13.04 ± 0.28 pg/mL, the IFN alpha concentration [2] was 0.26 ± 0 pg/mL and the bNGF concentration [2] was 6.86 ± 0.6 pg/mL. It also gave a BDNF concentration [3] of 4.24 ± 0.26 pg/mL, an EGF concentration [3] of 1.35 ± 0.18 pg/mL and an Eotaxin concentration [3] of 9.89 ± 0.22 pg/mL. For the same molecule, the FGF-2 concentration [3] was 20.84 ± 1.31 pg/mL, the GM-CSF concentration [3] was 134.94 ± 4.45 pg/mL and the GRO alpha concentration [3] was 575.98 ± 43.22 pg/mL. The HGF concentration [3] was 13.53 ± 0.5 pg/mL, the IFN alpha concentration [3] was 0.26 ± 0 pg/mL and the bNGF concentration [3] was 6.93 ± 1.04 pg/mL. It also gave a BDNF concentration [4] of 3.97 ± 0.22 pg/mL, an EGF concentration [4] of 1.46 ± 0.17 pg/mL and an Eotaxin concentration [4] of 9.89 ± 0.21 pg/mL. The FGF-2 concentration [4] was 20.93 ± 1.37 pg/mL, the GM-CSF concentration [4] was 132.6 ± 3.95 pg/mL and the GRO alpha concentration [4] was 560.99 ± 43.32 pg/mL. It also gave an HGF concentration [4] of 13.6 ± 0.53 pg/mL, an IFN alpha concentration [4] of 0.26 ± 0 pg/mL and a bNGF concentration [4] of 5.7 ± 0.76 pg/mL. The BDNF concentration (no stimulation, drug 200 nM) was 5.7 ± 0.31 pg/mL, the EGF concentration (no stimulation, drug 200 nM) was 1.12 ± 0.14 pg/mL and the Eotaxin concentration (no stimulation, drug 200 nM) was 2.28 ± 0.07 pg/mL. It also gave an FGF-2 concentration (no stimulation, drug 200 nM) of 8.77 ± 0.79 pg/mL, a GM-CSF concentration (no stimulation, drug 200 nM) of 9.48 ± 1.48 pg/mL and a GRO alpha concentration (no stimulation, drug 200 nM) of 236.87 ± 11.04 pg/mL. For the same molecule, the HGF concentration (no stimulation, drug 200 nM) was 4.74 ± 0.47 pg/mL, the IFN alpha concentration (no stimulation, drug 200 nM) was 0.2 ± 0.03 pg/mL and the IFN gamma concentration (no stimulation, drug 200 nM) was 3.81 ± 0.74 pg/mL. For the same molecule, the bNGF concentration (no stimulation, drug 200 nM) was 3.73 ± 0.63 pg/mL.
`CC(O)c1nc2cnc3ccsc3c2n1C1CCC(CC#N)OC1` (centres unmarked) [Cpc D] was tested, and the BDNF concentration [1] was 4.08 ± 0.26 pg/mL, the EGF concentration [1] was 1.49 ± 0.14 pg/mL and the Eotaxin concentration [1] was 9.82 ± 0.2 pg/mL. For the same molecule, the FGF-2 concentration [1] was 22.89 ± 1.39 pg/mL, the GM-CSF concentration [1] was 126.24 ± 3.53 pg/mL and the GRO alpha concentration [1] was 539.42 ± 38.03 pg/mL. The HGF concentration [1] was 13.47 ± 0.45 pg/mL, the IFN alpha concentration [1] was 0.26 ± 0.01 pg/mL and the bNGF concentration [1] was 7.44 ± 0.63 pg/mL. It also gave a BDNF concentration [2] of 3.97 ± 0.25 pg/mL, an EGF concentration [2] of 1.31 ± 0.19 pg/mL and an Eotaxin concentration [2] of 9.58 ± 0.21 pg/mL. For the same molecule, the FGF-2 concentration [2] was 20.96 ± 1.43 pg/mL, the GM-CSF concentration [2] was 124.89 ± 3.37 pg/mL and the GRO alpha concentration [2] was 555.54 ± 44.74 pg/mL. For the same molecule, the HGF concentration [2] was 13.27 ± 0.45 pg/mL, the IFN alpha concentration [2] was 0.26 ± 0 pg/mL and the bNGF concentration [2] was 6.17 ± 0.74 pg/mL. For the same molecule, the BDNF concentration [3] was 4.18 ± 0.28 pg/mL, the EGF concentration [3] was 1.23 ± 0.16 pg/mL and the Eotaxin concentration [3] was 10.02 ± 0.19 pg/mL. For the same molecule, the FGF-2 concentration [3] was 21.77 ± 1.51 pg/mL, the GM-CSF concentration [3] was 133.19 ± 3.97 pg/mL and the GRO alpha concentration [3] was 578.28 ± 48.32 pg/mL. For the same molecule, the HGF concentration [3] was 13.75 ± 0.4 pg/mL, the IFN alpha concentration [3] was 0.26 ± 0 pg/mL and the bNGF concentration [3] was 7.12 ± 0.8 pg/mL. It also gave a BDNF concentration [4] of 4.03 ± 0.28 pg/mL, an EGF concentration [4] of 1.45 ± 0.17 pg/mL and an Eotaxin concentration [4] of 9.85 ± 0.17 pg/mL. It also gave an FGF-2 concentration [4] of 20.96 ± 1.34 pg/mL, a GM-CSF concentration [4] of 130.42 ± 3.44 pg/mL and a GRO alpha concentration [4] of 564.53 ± 52.35 pg/mL. It also gave an HGF concentration [4] of 13.8 ± 0.48 pg/mL, an IFN alpha concentration [4] of 0.25 ± 0.02 pg/mL and a bNGF concentration [4] of 6.73 ± 0.61 pg/mL. It also gave a BDNF concentration (no stimulation, drug 200 nM) of 5.66 ± 0.38 pg/mL, an EGF concentration (no stimulation, drug 200 nM) of 1.24 ± 0.09 pg/mL and an Eotaxin concentration (no stimulation, drug 200 nM) of 2.08 ± 0.07 pg/mL. The FGF-2 concentration (no stimulation, drug 200 nM) was 8.19 ± 1.07 pg/mL, the GM-CSF concentration (no stimulation, drug 200 nM) was 8.49 ± 1.84 pg/mL and the GRO alpha concentration (no stimulation, drug 200 nM) was 234.42 ± 14.21 pg/mL. The HGF concentration (no stimulation, drug 200 nM) was 3.68 ± 0.39 pg/mL, the IFN alpha concentration (no stimulation, drug 200 nM) was 0.22 ± 0.03 pg/mL and the IFN gamma concentration (no stimulation, drug 200 nM) was 4.52 ± 0.68 pg/mL. It also gave a bNGF concentration (no stimulation, drug 200 nM) of 3.47 ± 0.48 pg/mL.
